Measured values reported in patent US20220125838A1, “IMMUNOMODULATORY GLYCOSPHINGOLIPIDS AND METHODS OF USE THEREOF” (President and Fellows of Harvard College, priority 2019, published 2022).

Tested on: NKT cells
Experiment: In vivo cytokine assay (serum IL-2, IFN-γ, IL-4 after intraperitoneal injection)
Parameters: species or system mice
Settings: 1 μg per mouse intraperitoneally
Protocol: To investigate the relevance of structural variation to immunomodulatory function, an in vitro panel screening assay of synthetic BfaGCs was carried out in a co-culture system with bone marrow-derived dendritic cells (BMDCs) and NKT cells. Levels of interleukin 2 (IL-2) production in the presence of individual BfaGCs clearly distinguished two groups with different levels of NKT cell recognition: strong and weak stimulators (FIG. 3A). Strikingly, all 10 strong stimulators have branched (either ω-2 or ω-3) sphinganine chains, whereas none of 11 weak stimulators have such branching. […] These molecules were individually injected into mice (1 μg per mouse, intraperitoneally), and systemic levels of cytokines were quantified and directly compared to those in mice injected with KRN7000 (a prototypic Th1 agonist) and mice injected with OCH (a Th2 agonist). Serum IL-2 levels 2 h after injection show trends consistent with in vitro results (KRN7000>SB2217>SB2219), which implies that BfaGCs are also functioning in vivo (FIG. 3B). […] Although It is well established that aGCs with very long fatty acyl chains (e.g., KRN7000, which has a C26 saturated chain) selectively induce Th1-type cytokines and that shorter-sphingoid-chain aGCs (e.g., OCH, which has a C8 saturated chain) skew toward Th2, aGCs with acyl and sphingoid chain lengths of long-chain fatty acids (C15-C19), prominently identified in B. fragilis, are less well investigated (21).
Mice (n=4 per group) were given 100 uL of KRN7000, OCH, SB2217 or SB2219 solution (1 ug, 0.9% DMSO in PBS) intraperitoneally. Animals were bled at 2 hours after injection from tail vein (˜100 uL per animal). At 18 hours after injection, animals were euthanized and second 100 uL blood was drawn by cardiac puncture. Fresh blood was collected to Z-Gel tubes (Sarstedt) to form blood clot and spun at 10,000×g for 5 minutes for serum separation. Samples were frozen at −80 degree until analysis by multiplex ELISA (Eve Technologies, Calgary, Canada).

[1] = serum at observed time points (2 and 18 hours)

**Q.** With `CCCCCCCCCCCCCCCCCCCCCCCCCC(=O)N[C@@H](CO[C@H]1O[C@H](CO)[C@H](O)[C@H](O)[C@H]1O)[C@H](O)[C@H](O)CCCCCCCCCCCCCC` [KRN7000] as the compound, how does the “serum IL-2 level” value (2 h after injection) read?
**A.** KRN7000>SB2217>SB2219

**Q.** And the “Th1 cytokine (IFN-γ) induction in vivo” value [1]?
**A.** stimulates IFN-gamma

**Q.** With `CCCCCCCCCCCCCCCCCCCCCCCC(=O)N[C@@H](CO[C@H]1O[C@H](CO)[C@H](O)[C@H](O)[C@H]1O)[C@H](O)[C@H](O)CCCCC` [OCH] as the compound, how does the “Th2 cytokine (IL-4) induction in vivo” value [1] read?
**A.** stimulates IL-4
